Experimental data: patent US20260085082A1, “KDM1A INHIBITORS FOR THE TREATMENT OF DISEASE” (Imago Biosciences, Inc., priority 2022, published 2026)
Read-outs that look alike come from different tables or passages of the source.

Tests used:
LSD1 = LSD1 (Homo sapiens, UniProt O60341); test: LSD1 10-dose IC50 fluorescence coupling enzyme assay (HRP/Amplex Red, resorufin); type: biochemical; settings: 10 M histone H3(1-21)K4me2 peptide substrate; 3-fold serial dilution in duplicate starting at 100 μM
Description: Compounds were tested in a 10-dose IC50 mode fluorescence coupling enzyme assay with 3-fold serial dilution in duplicate starting at 100 μM. The production of FAD-dependent H2O2 as a result of demethylase activity of LSD1 on […] histone H3(1-21)K4me2 peptide substrate was measured by coupling with HRP and Amplex Red to yield resorufin (fluorescence measured at Ex/Em=535/590 nm on EnVision, Perkin Elmer).

MV4;11 cells = test: Cell Titer-Glo Luminescent Cell Viability Assay, cell growth inhibition against MV4;11 cells; type: cell-based; settings: Homo sapiens
Description: Cell growth inhibition against MV4;11 cells was confirmed for the synthetic compounds. The Cell Titer-Glo Luminescent Cell Viability Assay (Promega, USA) was used to determine the number of viable cells in culture based on quantitation of the ATP present, which signals the presence of metabolically active cells. This assay was run in a 96-well plate format arrayed in a 10-point dose curve, ranging from 0 to 50 μM with 4-fold dilutions for each compound. Cells are seeded on Day 0 at 3750 cells per well. At Day 5, a portion of each well is assayed for viability according to the Cell Titer-Glo protocol. Briefly, cells/plates were centrifuged at 1100×g for 5 minutes. 100 μL of media was removed from each well and replaced with 100 μL of CellTiter-Glo. The plates were shaken at room temperature for 10 minutes and measured on a luminescence plate reader. Another portion of each well from the Day 5 plate is used to seed a new 96 plate containing fresh compound and media set up in the equivalent 10-point dose curve array in order to continue the cell growth inhibition assay for another 5 days. A final timepoint is collected at Day 10 using the Cell Titer-Glo protocol. Luminescence was detected on an EnVision® Multilabel Plate Reader (Perkin Elmer, Waltham, Mass.) and IC50 determination was made using Graph Pad Prism software.

[1] = MV4-11, 120 h, MV4;11 cells, Day 5, 10-point dose curve 0 to 50 μM, read-out: Cell Titer Glo IC50 (5 d)
[2] = MV4-11, MV4;11 cells, Day 10 (re-seeded at Day 5 with fresh compound), 10-point dose curve 0 to 50 μM, read-out: Cell Titer Glo IC50 (10 d)

| SMILES | IC50 (LSD1) | IC50 (MV4;11 cells; [1]) | IC50 (MV4;11 cells; [2]) |
| --- | --- | --- | --- |
| COC1CCN(c2ccc(-n3nc(C(=O)N4CCC[C@@H](N)C4)cc3-c3ccc(C#N)c(F)c3)nc2)CC1 [Example 53, (R)-4-(3-(3-aminopiperidine-1-carbonyl)-1-(5-(4-methoxypiperidin-1-yl)pyridin-2-yl)-1H-pyrazol-5-yl)-2-fluorobenzonitrile 2,2,2-trifluoroacetate] | 1000 to 10000 nM | – | < 500 nM |
| CC1(O)CCN(c2ccc(-n3nc(C(=O)N4CCC[C@@H](N)C4)cc3-c3ccc(C#N)c(F)c3)cc2)CC1 [Example 47, (R)-4-(3-(3-aminopiperidine-1-carbonyl)-1-(4-(4-hydroxy-4-methylpiperidin-1-yl)phenyl)-1H-pyrazol-5-yl)-2-fluorobenzonitrile 2,2,2-trifluoroacetate] | < 500 nM | – | < 500 nM |
| COc1ccc(-n2ncc(C(=O)N3CCCC(N)C3)c2-c2ccc(C#N)cc2)cc1 (centres unmarked) [Example 88, 4-(4-(3-aminopiperidine-1-carbonyl)-1-(4-methoxyphenyl)-1H-pyrazol-5-yl)benzonitrile] | > 10000 nM | > 10000 nM | – |
| Cn1cc2cc(-n3nc(C(=O)N4CCCC(N)C4)cc3-c3ccc(C#N)c(F)c3)ccc2n1 (centres unmarked) [Example 40, 4-(3-(3-Aminopiperidine-1-carbonyl)-1-(2-methyl-2H-indazol-5-yl)-1H-pyrazol-5-yl)-2-fluorobenzonitrile] | < 500 nM | < 500 nM | – |
| COc1ccc(-n2nc(-c3ccc(C#N)cc3)cc2C(=O)NC2CCCNC2)cc1 (centres unmarked) [Example 5, 3-(4-Cyanophenyl)-1-(4-methoxyphenyl)-N-(piperidin-3-yl)-1H-pyrazole-5-carboxamide 2,2,2-trifluoroacetate] | 1000 to 10000 nM | > 10000 nM | – |
| Cn1ncc2cc(-n3nc(C(=O)N4CCC[C@@H](N)C4)cc3-c3ccc(C#N)c(F)c3)ccc21 [Example 43, (R)-4-(3-(3-aminopiperidine-1-carbonyl)-1-(1-methyl-1H-indazol-5-yl)-1H-pyrazol-5-yl)-2-fluorobenzonitrile 2,2,2-trifluoroacetate] | < 500 nM | – | < 500 nM |
| N#Cc1ccc(-c2cc(C(=O)N3CCC[C@@H](N)C3)nn2-c2ccc(N3CCC(=O)CC3)cc2)cc1F [Example 46, (R)-4-(3-(3-aminopiperidine-1-carbonyl)-1-(4-(4-oxopiperidin-1-yl)phenyl)-1H-pyrazol-5-yl)-2-fluorobenzonitrile] | < 500 nM | – | < 500 nM |
| N#Cc1ccc(-c2cc(C(=O)N3CCC[C@@H](N)C3)nn2-c2ccc(N3CCS(=O)(=O)CC3)cc2)cc1F [Example 71, (R)-4-(3-(3-aminopiperidine-1-carbonyl)-1-(4-(1,1-dioxidothiomorpholino)phenyl)-1H-pyrazol-5-yl)-2-fluorobenzonitrile 2,2,2-trifluoroacetate] | < 500 nM | – | < 500 nM |
| CN1CCN(c2ccc(-n3nc(C(=O)N4CCC[C@@H](N)C4)cc3-c3ccc(C#N)c(F)c3)nc2)CC1 [Example 54, (R)-4-(3-(3-aminopiperidine-1-carbonyl)-1-(5-(4-methylpiperazin-1-yl)pyridin-2-yl)-1H-pyrazol-5-yl)-2-fluorobenzonitrile 2,2,2-trifluoroacetate] | 1000 to 10000 nM | – | 1000 to 10000 nM |
| N#Cc1ccc(-c2cc(C(=O)N3CCC[C@@H](N)C3)nn2-c2ccc(-c3ccc4c(c3)OCCO4)cc2)cc1F [Example 85, (R)-4-(3-(3-aminopiperidine-1-carbonyl)-1-(4-(2,3-dihydrobenzo[b][1,4]dioxin-6-yl)phenyl)-1H-pyrazol-5-yl)-2-fluorobenzonitrile 2,2,2-trifluoroacetate] | < 500 nM | – | < 500 nM |
| COc1ccc(-n2cc(C(=O)N3CCCC(N)C3)c(-c3ccc(C#N)cc3)n2)cc1 (centres unmarked) [Example 87, 4-(4-(3-aminopiperidine-1-carbonyl)-1-(4-methoxyphenyl)-1H-pyrazol-3-yl)benzonitrile] | > 10000 nM | > 10000 nM | – |
| Cc1cc(CCn2nc(C(=O)N3CCC[C@H](N)C3)cc2-c2ccc(C#N)c(F)c2)on1 [Example 39, (S)-4-(3-(3-aminopiperidine-1-carbonyl)-1-(2-(3-methylisoxazol-5-yl)ethyl)-1H-pyrazol-5-yl)-2-fluorobenzonitrile] | > 10000 nM | > 10000 nM | – |

Second part, led by results:

| IC50 (LSD1) | IC50 (MV4;11 cells; [1]) | SMILES | IC50 (MV4;11 cells; [2]) |
| --- | --- | --- | --- |
| < 500 nM | 1000 to 10000 nM | COc1ccc(-n2nc(NC(=O)C3CCNC3)cc2-c2ccc(C#N)c(F)c2)cc1 (centres unmarked) [Example 93, N-(5-(4-cyano-3-fluorophenyl)-1-(4-methoxyphenyl)-1H-pyrazol-3-yl)pyrrolidine-3-carboxamide 2,2,2-trifluoroacetate] | – |
| < 500 nM | 1000 to 10000 nM | COc1ccc(-n2nc(-c3ccc(C#N)c(F)c3)cc2C(=O)N2CCCC(N)C2)cc1 (centres unmarked) [Example 17, 4-(5-(3-Aminopiperidine-1-carbonyl)-1-(4-methoxyphenyl)-1H-pyrazol-3-yl)-2-fluorobenzonitrile] | – |
| < 500 nM | 1000 to 10000 nM | Cc1ccc(-n2nc(C(=O)N3CCC(N)CC3)cc2-c2ccc(C#N)c(F)c2)cc1 [Example 9, 4-(3-(4-Aminopiperidine-1-carbonyl)-1-(p-tolyl)-1H-pyrazol-5-yl)-2-fluorobenzonitrile] | – |
| 500 to 1000 nM | 1000 to 10000 nM | Cc1ccc(-n2nc(C(=O)NC3CCNC3)cc2-c2ccc(C#N)c(F)c2)cc1 (centres unmarked) [Example 10, 5-(4-Cyano-3-fluorophenyl)-N-(pyrrolidin-3-yl)-1-(p-tolyl)-1H-pyrazole-3-carboxamide] | – |
| < 500 nM | < 500 nM | COc1ccc(-n2nc(C(=O)N3CCC[C@H](N)C3)cc2-c2ccc(C#N)c(F)c2)cc1 [Example 19, (S)-4-(3-(3-Aminopiperidine-1-carbonyl)-1-(4-methoxyphenyl)-1H-pyrazol-5-yl)-2-fluorobenzonitrile] | < 500 nM |
| < 500 nM | 1000 to 10000 nM | COc1ccc(-n2nc(NC(=O)[C@@H]3CCC[C@@H](N)C3)cc2-c2ccc(C#N)c(F)c2)cc1 [Example 89, (1R,3R)-3-amino-N-(5-(4-cyano-3-fluorophenyl)-1-(4-methoxyphenyl)-1H-pyrazol-3-yl)cyclohexane-1-carboxamide 2,2,2-trifluoroacetate] | – |
| < 500 nM | 1000 to 10000 nM | COc1ccc(-n2nc(NC(=O)[C@@H]3CCNC3)cc2-c2ccc(C#N)c(F)c2)cc1 [Example 94, (R)-N-(5-(4-cyano-3-fluorophenyl)-1-(4-methoxyphenyl)-1H-pyrazol-3-yl)pyrrolidine-3-carboxamide 2,2,2-trifluoroacetate] | – |
| < 500 nM | 500 to 1000 nM | Cn1cc(-c2ccc(-n3nc(C(=O)N4CCC[C@H](N)C4)cc3-c3ccc(C#N)c(F)c3)cc2)cn1 [Example 65, (S)-4-(3-(3-aminopiperidine-1-carbonyl)-1-(4-(1-methyl-1H-pyrazol-4-yl)phenyl)-1H-pyrazol-5-yl)-2-fluorobenzonitrile 2,2,2-trifluoroacetate] | < 500 nM |
| < 500 nM | > 10000 nM | Cc1ccc(-n2nc(C(=O)N3CCC(CN)CC3)cc2-c2ccc(C#N)c(F)c2)cc1 [Example 8, 4-(3-(4-(Aminomethyl)piperidine-1-carbonyl)-1-(p-tolyl)-1H-pyrazol-5-yl)-2-fluorobenzonitrile] | – |
| < 500 nM | 500 to 1000 nM | COC1CCN(c2ccc(-n3nc(C(=O)N4CCC[C@H](N)C4)cc3-c3ccc(C#N)c(F)c3)cc2)CC1 [Example 63, (S)-4-(3-(3-aminopiperidine-1-carbonyl)-1-(4-(4-methoxypiperidin-1-yl)phenyl)-1H-pyrazol-5-yl)-2-fluorobenzonitrile 2,2,2-trifluoroacetate] | < 500 nM |
| 1000 to 10000 nM | 1000 to 10000 nM | COc1ccc(-n2nc(NC(=O)[C@H]3CC[C@H](N)CC3)cc2-c2ccc(C#N)c(F)c2)cc1 [Example 91, (1R,4R)-4-Amino-N-(5-(4-cyano-3-fluorophenyl)-1-(4-methoxyphenyl)-1H-pyrazol-3-yl)cyclohexane-1-carboxamide 2,2,2-trifluoroacetate] | – |
| > 10000 nM | > 10000 nM | COc1ccc(-n2nc(C(=O)N3CC(N)C3)cc2-c2ccc(C#N)c(F)c2)cc1 [Example 31, 4-(3-(3-Aminoazetidine-1-carbonyl)-1-(4-methoxyphenyl)-1H-pyrazol-5-yl)-2-fluorobenzonitrile 2,2,2-trifluoroacetate] | – |
| < 500 nM | – | N#Cc1ccc(-c2cc(C(=O)N3CCC[C@@H](N)C3)nn2-c2ccc(N3CCC(OCCO)CC3)cc2)cc1F [Example 45, (R)-4-(3-(3-aminopiperidine-1-carbonyl)-1-(4-(4-(2-hydroxyethoxy)piperidin-1-yl)phenyl)-1H-pyrazol-5-yl)-2-fluorobenzonitrile] | < 500 nM |
